Data taken from patent publication US20050261319A1, “Novel 2-amino-4-quinazolinones and 2-amino-4-oxoquinazolones as LXR nuclear receptor binding compounds with partial agonistic properties” (priority 2002, published 2005).

Assays:
[1] = target: T1, human LXRalpha LBD (Homo sapiens, UniProt Q13133, A196R); assay: In vitro screening for LXR binding to coactivator Tif2 (LANCE TR-FRET); assay type: biochemical
T1 construct: from amino acids 155 of hLXRalpha to 447; made in house; host or cells: SF9 insect cells (baculovirus) for LXRalpha LBD; E. coli BL21 for Tif2 fragment
T1 sequence (Q13133 155-447 A196R): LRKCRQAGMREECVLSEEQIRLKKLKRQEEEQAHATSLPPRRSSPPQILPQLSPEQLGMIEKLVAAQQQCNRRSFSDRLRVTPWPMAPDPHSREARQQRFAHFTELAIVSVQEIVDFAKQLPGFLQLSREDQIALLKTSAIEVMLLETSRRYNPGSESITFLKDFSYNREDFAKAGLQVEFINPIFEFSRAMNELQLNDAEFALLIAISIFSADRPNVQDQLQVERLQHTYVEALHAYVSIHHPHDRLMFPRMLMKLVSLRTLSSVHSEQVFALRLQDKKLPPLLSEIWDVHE
T1 sequence (Q15596 548-878 partner limits assumed): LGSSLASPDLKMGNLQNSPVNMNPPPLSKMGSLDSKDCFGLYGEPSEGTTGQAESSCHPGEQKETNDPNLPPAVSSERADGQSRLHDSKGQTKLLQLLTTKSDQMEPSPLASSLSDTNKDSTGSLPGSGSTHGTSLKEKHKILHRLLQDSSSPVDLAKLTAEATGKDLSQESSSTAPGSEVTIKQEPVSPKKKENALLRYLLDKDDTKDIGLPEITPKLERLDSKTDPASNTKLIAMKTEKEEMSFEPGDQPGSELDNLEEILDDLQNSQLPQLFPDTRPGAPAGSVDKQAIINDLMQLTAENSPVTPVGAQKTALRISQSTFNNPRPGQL
Excerpt: For screening purposes a GST and 6× His fusion of the LBD (from amino acids 155 of hLXRalpha to 447) of human LXRalpha was constructed by first cloning a Gateway cassette (Invitrogen) in frame into the Sma I site of the pAGGHLT Polylinker (Pharmingen). Then a PCR fragment specifically amplified from human liver cDNA was cloned into the resulting pACGHLT-GW following the manufacturers instructions for Gateway cloning (Invitrogen) to yield pACGHLT-GW-hLXRalphaLBD.
100% sequence integrity of all recombinant products was verified by sequencing. Recombinant Baculovirus was constructed from pACGHLT-GW-hLXRalphaLBD using the Pharmingen Baculovirus Expression vector system according to instructions of the manufacturer. Monolayer cultures of SF9 cells were infected by the virus as recommended by Pharmingen or 200 ml cultures of 1×10^6 cells/ml grown in 2 liter Erlenmeyer flasks on an orbital shaker at 30 rpm were infected by 10 ml of same virus stock. In both cases cells were harvested 3 days after infection. All cell growth was performed in Gibco SF900 II with Glutamine (Invitrogen) medium without serum supplementation at 28° C. Since SF9 cells contain significant amounts of endogenous 30 GST, purification was performed via His and not via GST affinity chromatography.
To this end instructions of Pharmingen for purification of recombinant His tagged proteins from SF9 cells were followed with the following modifications: All detergents were omitted from the buffers and cells were lysed on ice by 5 subsequent sonication pulses using a sonicator needle at maximum power.
All eluates were dialyzed against 20 mM Tris/HCl pH 6.8, 300 mM KCl; 5 mM MgCl2;1 mM DTT; 0.2 mM PMSF; 10% Glycerol. A typical dialyzed eluate fraction contained the fusion protein at a purity of more than 80%. Total protein concentration was 0.1-0.3 mg/ml.
For E. coli expression of a NR coactivator, pDest17-hTif2BD expressing an NR interaction domain from amino acids 548-878 of human Tif2 (Acc. No: XM011633 Ref Seq) tagged by 6 N-terminal His residues was constructed. Therefore, a PCR fragment specifically amplified from human liver cDNA was subcloned into pDest 17 (Invitrogen) following the manufacturers instructions for Gateway cloning (Invitrogen). Primers used for Amplification were: […]
For E. coli expression plasmid DNA was transformed into chemically competent E. coli BL21 (Invitrogen, USA) and cells were grown to an OD600 of 0.4-0.7 before expression was induced by addition of 0.5 mM IPTG according instructions of the manufacturer (Invitrogen). After induction for 8 hours at 30° C. cells were harvested by centrifugation for 10 minutes at 5000×g. Fusion proteins were affinity purified using Ni—NTA Agarose (QIAGEN) according to the instructions of the manufacturer.
Recombinant Tif2 construct was dialyzed against 20 mM Tris/HCL pH 7.9; 60 mM KCl; 5 mM MgCl2; 1 mM DTT, 0.2 mM PMSF; 10% glycerol. A typical dialyzed eluate fraction contained the fusion protein at a purity of more than 80%. Total protein concentration was 0.1-0.3 mg/ml.
The TIF2 fragment was subsequently biotinylated by addition of 5-40 ul/ml Tif2 fraction of a Biotinamidocaproate N-Hydroxysuccinimide-ester (Sigma) solution (20 mg/ml in DMSO). Overhead rotating samples were incubated for 2 hours at room temperature. Unincorporated label was then separated using G25 Gel filtration chromatography (Pharmacia Biotech, Sweden). Protein containing fractions from the column were pooled and tested for activity in the assay as described below.
For screening of compound libraries as provided for by the methods shown below in the examples for substances which influence the LXR/Tif 2 interaction, the PerkinElmer LANCE technology is applied. This method relies on the binding dependent energy transfer from a donor to an acceptor fluorophore attached to the binding partners of interest. […]

[2] = target: T2, GAL4-LXRa-LBD (Homo sapiens, UniProt Q13133); assay: Mammalian one hybrid (M1H) luciferase assay in HEK293 cells, LXR alpha LBD; assay type: cell-based
T2 construct: expressed in transfected cells; host or cells: HEK293
T2 sequence (Q13133 209-447 limits assumed): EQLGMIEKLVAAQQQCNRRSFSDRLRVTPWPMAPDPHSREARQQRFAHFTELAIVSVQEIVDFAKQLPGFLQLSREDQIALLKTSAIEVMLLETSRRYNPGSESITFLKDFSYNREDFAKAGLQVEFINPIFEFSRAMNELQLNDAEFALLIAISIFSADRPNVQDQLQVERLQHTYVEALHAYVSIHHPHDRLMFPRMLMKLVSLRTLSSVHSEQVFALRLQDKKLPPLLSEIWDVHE
Description: For TR1040001892, TR1040011382, TR1040002211, and TR1040002212, HEK293 cells are grown in 96 well plates and co-transfected with pFR-luc (Stratagene) and pCMV-BD-LXRa-LBD or pCMV-BD-LXRb-LBD (each 100 ng of plasmid DNA per well). Transfection is carried using Lipfectamine 2000 (Gibco-BRL) according to the manufacturers protocol. The ligand binding domains (LBD) of LXRa and LXRb are cloned into the pCMV-BD-GW (the Gateway Reading Frame Cassette B is cloned as an EcoRV fragment into Sma1 site of pCMV-BD) applying the manufacturer protocols for the Gateway system (Invitrogen). […] The type of assay used here is a mammalian one hybrid (M1 H) assay that is known to those skilled in the art.

EC50 ([1]; FRET assay, read-out: EC50 at LXR (half-maximal effective concentration)) | SMILES | luciferase reporter gene expression mediated through GAL4-LXRa-LBD [2] | active as agonist / partial agonist of the LXR human nuclear receptor [1]
2 µM | C=CCn1c(N2C3CC(C)(C)CC2(C)C3)nc2ccc(I)cc2c1=O (centres unmarked) [formula (9)] | activate luciferase reporter gene expression in a dose dependent manner | 
 | CC(C)n1c(N2C3CC(C)(C)CC2(C)C3)nc2ccc(I)cc2c1=O (centres unmarked) [formula (10)] | activate luciferase reporter gene expression in a dose dependent manner | active as partial agonist
 | CCCn1c(N2[C@@H]3CC(C)(C)C[C@@]2(C)C3)nc2cccc(F)c2c1=O [formula (11)] | activate luciferase reporter gene expression in a dose dependent manner | active as partial agonist
 | C=CCn1c(N2[C@@H]3CC(C)(C)C[C@@]2(C)C3)nc2cccc(F)c2c1=O [formula (12)] | activate luciferase reporter gene expression in a dose dependent manner | active as partial agonist
